We go through 1 molecule from paper PMC9645260, “Small-molecule inhibitors of P-Rex guanine-nucleotide exchange factors” (Small GTPases, 2022).

In one experiment the target is T1, DOCK10 (DHR2) (Homo sapiens, UniProt Q96BY6).
T1 construct: The DOCK10 DHR2 domain, produced in and purified from bacteria; host or cells: bacteria
T1 sequence (Q96BY6 1690-2150 limits assumed): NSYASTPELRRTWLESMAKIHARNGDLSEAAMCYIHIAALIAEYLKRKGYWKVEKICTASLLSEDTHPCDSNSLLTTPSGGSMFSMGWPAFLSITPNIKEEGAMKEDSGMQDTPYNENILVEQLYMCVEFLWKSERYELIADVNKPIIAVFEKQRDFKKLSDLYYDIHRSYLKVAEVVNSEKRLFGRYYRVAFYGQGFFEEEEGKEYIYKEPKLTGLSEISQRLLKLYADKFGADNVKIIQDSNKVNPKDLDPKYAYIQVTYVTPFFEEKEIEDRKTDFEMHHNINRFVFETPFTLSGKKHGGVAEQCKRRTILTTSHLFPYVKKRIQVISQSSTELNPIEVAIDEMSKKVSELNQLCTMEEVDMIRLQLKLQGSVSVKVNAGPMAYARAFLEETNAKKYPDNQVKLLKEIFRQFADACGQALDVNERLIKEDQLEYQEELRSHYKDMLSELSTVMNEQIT
In words: Liposome-based GEF activity assay, DOCK10. The format is biochemical. The settings on record: 10 µM, 765 nM DOCK10 DHR2. The protocol: Full-length N-terminally EE-tagged P-Rex1, P-Rex2, the P-Rex1 DH and DHPH domains and the P-Rex2 DH domain were produced in Sf9 cells using baculoviral transduction and were purified using anti-EE beads, as previously described. Briefly, frozen pellets from 500 ml of Sf9 culture infected with P-Rex expressing high-titre baculovirus were resuspended in ice-cold lysis Sf9-cell lysis buffer 2 (1x PBS, 1% Triton X-100, 5 mM EGTA, 1 mM EDTA, 25 mM NaF, 20 mM β-glycerophosphate, 1 mM DTT, 100 µM PMSF, 10 μg/ml each of leupeptin, pepstatin A, aprotinin and antipain) for 5 min and then ultracentrifuged at 118,000 × g for 1 h at 4°C. Supernatants were incubated with pre-washed anti-EE beads for 90 min on ice with end-over-end rotation. […] Protein concentration and purity were determined by coomassie staining of SDS-PAGE gels. […]
Liposome-based GEF activity assays were carried out essentially as described, except that GEFs were incubated with inhibitor compounds prior to the assay. […] Small GTPases were isolated using anti-EE antibody-coupled Sepharose beads or glutathione Sepharose beads, as appropriate, by incubation on ice for 90 min with end-over-end rotation, four washes in ice-cold wash buffer and resuspension of beads in Ultima Gold scintillation fluid (Perkin Elmer). ^35S-GTPγS incorporation was assessed by scintillation counting (Packard 1600TR, Liquid Scintillation Analyser).

For another experiment, the target named is T2, P-Rex1 DHPH domain (Homo sapiens, UniProt Q8TCU6).
T2 construct: 100 nM EE-P-Rex1 DHPH domains (PREX-in1, compounds 2–10 and 30–128); made in house; host or cells: Sf9 cells (baculovirus)
In words: Mant-GTP GEF activity assay. The class given is biochemical. The protocol:
The mant-GTP GEF activity assay measures the binding of fluorescent 2’/3’-O-(N-Methyl-anthraniloyl)-guanosine-5’-triphosphate (mant)-GTP to Rac, making use of the spectroscopic differences between bound and free mant-GTP. P-Rex1 DHPH domain protein was diluted to 375 nM in exchange buffer (20 mM Tris, pH 7.5 RT, 50 mM NaCl, 200 mM KCl, 4 mM MgCl2, 50 μg/ml fatty-acid-free BSA). The inhibitors PREX-in1 or EHop-016 were diluted to various concentrations in exchange buffer containing 15% DMSO. 4.4 µl P-Rex1 DHPH domain protein were incubated with 1.1 µl PREX-in1 or EHop-016 for 30 min at 30°C, or were mock treated with 1.1 µl vehicle (15% DMSO). 5 μl of the P-Rex1 DHPH / inhibitor mix was then added to 10 µl of a 1.5x reaction mix containing 225 nM bacteria-derived EE-Rac1, 7.5 µM mant-GTP and 15 µM GTP in exchange buffer in a 96-well plate. Final assay concentrations were 150 nM EE-Rac1, 100 nM P-Rex1 DHPH domain, 5 μM mant-GTP, 10 µM GTP, […] fatty-acid-free BSA, 1% DMSO, and the indicated concentrations of inhibitor. Mant-GTP fluorescence was measured in real time in a PHERAstar 384-well fluorescence plate reader at 25°C for 40 min using 360 nm excitation and 440 nm emission.

T2 sequence (Q8TCU6 49-392 limits assumed): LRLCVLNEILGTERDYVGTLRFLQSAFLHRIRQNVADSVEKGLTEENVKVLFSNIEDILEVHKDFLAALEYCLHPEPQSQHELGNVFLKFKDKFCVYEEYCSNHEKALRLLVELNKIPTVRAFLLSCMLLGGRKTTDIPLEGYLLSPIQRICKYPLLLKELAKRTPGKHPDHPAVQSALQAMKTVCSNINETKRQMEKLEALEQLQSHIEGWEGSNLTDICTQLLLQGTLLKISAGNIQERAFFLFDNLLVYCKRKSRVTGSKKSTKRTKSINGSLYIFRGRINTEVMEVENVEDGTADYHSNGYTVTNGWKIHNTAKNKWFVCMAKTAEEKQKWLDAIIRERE

As for `COc1ccc(-c2[nH]nc3c2C(c2ccc(-c4ccc(Cl)cc4)o2)C(C#N)=C(N)O3)cc1` (stereo not drawn) [PREX-in1, 6-amino-4-[5-(4-chlorophenyl)-2-furyl]-3-(4-methoxyphenyl)-2,4-dihydropyrano[2,3-c]pyrazole-5-carbonitrile], on DOCK10 (DHR2), the “effect on GEF activity of DOCK10” value is “none of the other GEFs were affected”. Further, the IC50 at P-Rex1 DHPH domain (150 nM EE-Rac1, 100 nM P-Rex1 DHPH, read-out: IC50 of inhibition of P-Rex1 DHPH in mant-GTP assay) is approximately 10 µM. Also, at P-Rex1 DHPH domain (10 µM), the “effect on P-Rex1 DHPH-dependent mant-GTP loading of Rac1” value is reported as “inhibited”.

The term IC50 denotes the concentration at which inhibition is half-maximal.
